Laboratory results from US6602897B2, “m-Amino-phenylimino-imidazolidine derivatives for treating urinary incontinence” (Boehringer Ingelheim Pharma KG, priority 2000, dated 2003).
Structures can show the parent of a compound that is named as a salt.

What was measured:
CYP2D6 = CYP2D6 (Homo sapiens, UniProt P10635); assay: Metabolism: breakdown of test substance by enzyme CYP2D6; type: in vitro ADME
Experimental: To determine the metabolism, the enzyme CYP2D6 was allowed to act on the test substances. After 30 minutes, a check was made to see how much of the test substance put in had been broken down by the enzyme.

HLM = assay: Metabolism: breakdown of test substance by HLM; type: in vitro ADME
Experimental: The rate of breakdown under the effect of the enzyme HLM/60 minutes is tested analogously.

Human Urethra = assay: Efficacy: activity on the human urethra, contraction compared with noradrenalin; details: percentage of contraction compared with noradrenalin
Experimental: (§1) The efficacy and selectivity of the compounds is determined as follows:
(§2) The maximum contraction in the dog and the activity on the human urethra are given as percentages of contraction compared with noradrenalin. Selectivity in the dog: percentage contraction on the femoral artery in the dog at 10^−5 M—percentage contraction on the carotid artery in the dog at 10^−5 M.

dog = assay: Efficacy: maximum contraction in the dog compared with noradrenalin; details: percentage of contraction compared with noradrenalin
Experimental: as §1, §2

[1] = tested on: femoral artery in the dog / carotid artery in the dog; assay: Selectivity in the dog: contraction on femoral artery vs carotid artery; details: percentage contraction on femoral artery at 10^-5 M — percentage contraction on carotid artery at 10^-5 M
Experimental: as §1, §2

[2] = Bioavailability after oral vs intravenous administration to fasted male rats, plasma HPLC; type: in vivo; details: rat, oral compared with intravenous, pooled plasma by HPLC
Experimental: In order to determine bioavailability, the test substances were administered orally to a group of 8 male rats which had been fasted. As a comparison, the test substances were administered intravenously to animals in an identical second group. 1 ml blood samples were taken from the animals of both groups at specified times after administration (10 minutes, 30 minutes, 1 hour, 2 hours, and 4 hours, and additionally after 6 hours in the case of the animals treated by oral route). The blood samples taken in each group were mixed together (8 ml). After further working up, the content of the test substances in the blood for the particular time was determined from the plasma by HPLC (High Performance Liquid Chromatography) using standard methods and compared for the two groups.

Chain of CYP2D6 (P10635 whole entry): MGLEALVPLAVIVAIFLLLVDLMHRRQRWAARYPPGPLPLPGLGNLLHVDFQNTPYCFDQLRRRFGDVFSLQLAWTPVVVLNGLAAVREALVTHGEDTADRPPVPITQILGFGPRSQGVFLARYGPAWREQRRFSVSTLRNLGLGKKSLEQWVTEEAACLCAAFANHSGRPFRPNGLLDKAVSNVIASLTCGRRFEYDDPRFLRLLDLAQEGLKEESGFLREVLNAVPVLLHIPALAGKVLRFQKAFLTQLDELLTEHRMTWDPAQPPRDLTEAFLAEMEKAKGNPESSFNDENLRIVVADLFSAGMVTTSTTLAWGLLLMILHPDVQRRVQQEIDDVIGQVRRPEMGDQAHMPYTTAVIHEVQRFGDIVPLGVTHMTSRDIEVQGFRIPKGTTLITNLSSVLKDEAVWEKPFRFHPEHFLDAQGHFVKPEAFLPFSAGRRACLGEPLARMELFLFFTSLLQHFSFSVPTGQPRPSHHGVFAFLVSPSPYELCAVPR

SMILES	melting point [°C]	% Breakdown of Substrate after 30 minutes' Incubation with CYP2D6 (CYP2D6) [%]	Breakdown of Substrate after 60 minutes' Incubation with HLM (HLM)	Activity on Human Urethra (Human Urethra) [%]	Activity in the Dog (maximum contraction) (dog) [%]	Selectivity in the Dog [1]	bioavailability [2] [%]
CN(C)c1ccc(Br)c(NC2=NCCN2)c1Cl	142 to 145	–	–	–	–	–	–
Cc1c(N(C)C)cc(Cl)c(Br)c1NC1=NCCN1 (as salt: hydrochloride) [Compound 1, 2′-Bromo-3′-chloro-5′-dimethylamino-6′-methylphen-1′-yl-2-iminoimidazolidine]	239 to 240	–	–	–	–	–	–
Cc1c(N(C)C)cc(Cl)c(Br)c1NC1=NCCN1 [Compound 1, 2′-Bromo-3′-chloro-5′-dimethylamino-6′-methylphen-1′-yl-2-iminoimidazolidine]	–	40.5	32.1	100	109	0.92	–
Cc1c(NC2=NCCN2)cc(Br)cc1N(C)C [Compound 3, 3′-bromo-5′-dimethylamino-6′-methylphen-1′-yl-2-iminoimidazolidine]	140 to 143	33.9	17.0	72	87	0.76	–
Cc1c(NC2=NCCN2)cc(Cl)cc1N(C)C [Compound 4, 3′-chloro-5′-dimethylamino-6′-methylphen-1′-yl-2-iminoimidazolidine]	–	36.5	17.1	137	116	0.99	11
Cc1c(N(C)C)cc(Br)c(Br)c1NC1=NCCN1 [Compound 5, 2′-3′-dibromo-5′-dimethylamino-6′-methylphen-1′-yl-2-iminoimidazolidine]	–	22.2	22.0	113	89	0.71	0.8
CN(C)c1cccc(NC2=NCCN2)c1Cl [Compound 6, 2′-chloro-3′-dimethylaminophen-1′-yl-2-iminoimidazolidine]	146 to 148	–	7.4	–	–	–	–
CN(C)c1c(Br)ccc(NC2=NCCN2)c1Cl [Compound 7, 4′-bromo-2′-chloro-3′-dimethylaminophen-1′-yl-2-iminoimidazolidine]	150 to 155	46.4	55.8	–	–	–	–
